According to PubChem BioAssay (NCI):
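1) Cells in 96-well plates. 2) Compound, 48 h, 5 concentrations. 3) Linear interpolation between surrounding doses. 4) Unreached endpoint = highest concentration. The concentration for 50% growth inhibition is given as GI50. TGI denotes the concentration required for complete inhibition of growth.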

Tests used:
Assay in all cases: NCI-60 cell line screen, 48 h
[1] = test system: SNB-19 CNS
[2] = test system: HT29 colon
[3] = test system: RXF 393 renal
[4] = test system: 786-0 renal
[5] = test system: KM12 colon
[6] = test system: HCT-116 colon
[7] = test system: SF-268 CNS
[8] = test system: HCC-2998 colon
[9] = test system: M14 melanoma
[10] = test system: HL-60(TB) leukemia

Row | SMILES | TGI [1] [µM] | TGI [2] [µM] | TGI [3] [µM] | TGI [4] [µM] | TGI [5] [µM] | TGI [6] [µM] | TGI [7] [µM] | TGI [8] [µM] | TGI [9] [µM] | GI50 [1] [µM] | GI50 [2] [µM] | GI50 [9] [µM] | GI50 [3] [µM] | GI50 [4] [µM] | GI50 [5] [µM] | GI50 [6] [µM] | GI50 [7] [µM] | TGI [10] [µM] | GI50 [10] [µM] | GI50 [8] [µM]
1 | CC(C)(C)N=CN1CCC(C(c2ccccc2)c2ccccc2)CC1 | > 100 | 56.5 | 98.7 | > 100 | > 100 | > 100 | > 100 |  |  |  |  |  |  |  |  |  |  |  |  | 
2 | CCOC(=O)/C=C(/CN1C(=O)c2ccccc2C1=O)c1ccccc1 | > 100 | > 100 | > 100 | > 100 | > 100 | > 100 | > 100 | > 100 | > 100 |  |  |  |  |  |  |  |  |  |  | 
3 | C=C1C(O)C2C(=C(CC(C)C)C13CC3)C(=O)C(C)(C)C2OC (stereo unspecified) | > 100 | > 100 | > 100 | > 100 | > 100 | > 100 | > 100 |  | > 100 | > 100 | > 100 | > 100 | > 100 | > 100 | > 100 | 81.5 | > 100 |  |  | 
4 | N#C/C(=C(\O)C(=O)O)c1ccc(-c2cccc3ccccc23)cc1 | > 100 | > 100 | > 100 | > 100 | > 100 | > 100 | > 100 |  | > 100 |  |  |  |  |  |  |  |  | 81.9 |  | 
5 | OCC1OC(N2C=C(c3nc4ccccc4s3)C3C=CC=CC32)C(O)C1O (stereo unspecified) | > 50 | 25.2 | 25.9 | 19.5 | 23.4 | > 50 | > 50 |  | 22.4 | 18.9 | 9.52 | 9.6 | 10.6 | 8.68 | 8.95 | 5.21 | 8.11 | > 50 | 21 | 
6 | c1cc(-c2sc(-c3ccncc3)c(-c3ccncc3)c2-c2ccncc2)ccn1 | 55.9 | 27.7 | 33.4 | 33 | 65.5 | 28.5 | 37.7 | 19.6 | 31.2 |  |  |  |  |  |  |  |  |  |  | 
7 | CCCCCCCCCCCC(=O)C1=C(O)C(O)CCC1=O (stereo unspecified) | 49.4 | 30.1 | > 100 | > 100 | 43.2 | 38.5 | > 100 | 52.9 |  |  |  |  |  |  |  |  |  | 38.8 |  | 
8 | O=S(=O)(O)c1ccc2cc(N=Nc3cc(S(=O)(=O)O)c4cccnc4c3O)ccc2c1 | > 100 | > 100 | > 100 | > 100 | > 100 | > 100 | > 100 |  | > 100 |  |  |  |  |  |  |  |  | 4.97 |  | 
9 | CC/C=C\C[C@H](O)C/C=C1/C(=O)C=C[C@@H]1C/C=C\CCCC(N)=O | 21.6 | 3.7 | 3.69 | 3.62 | 4.21 | 2.47 | 11.7 | 3.7 | 6.89 | 7.43 | 1.89 | 2.31 | 1.94 | 1.94 | 1.68 | 1.02 | 2.96 |  |  | 1.98
10 | CCCN(CCCCC(NC(C)=O)C(=O)NCc1ccccc1)C(=O)NC (stereo unspecified) | > 100 | > 100 | > 100 | > 100 | > 100 | > 100 | > 100 | > 100 | > 100 |  |  |  |  |  |  |  |  |  |  | 
11 | CC1(C)OC2C(=O)OC(COCc3ccccc3)C2O1 (stereo unspecified) |  | > 100 | > 100 | > 100 | > 100 | > 100 | > 100 | > 100 | > 100 |  |  |  |  |  |  |  |  | > 100 |  | 
12 | Cc1c2ncccc2c(C)c2c1[nH]c1ccccc12 | 26.7 | 25.7 | 25.9 | 23.2 | 29 | 17.3 | 34.8 | 25.7 | 44.9 |  |  |  |  |  |  |  |  |  |  | 
13 | Nc1ncnc2c1ncn2C1OC(C(=O)O)C(O)C1O (stereo unspecified) | > 100 | > 100 | > 100 | > 100 | > 100 | > 100 | > 100 |  | > 100 |  |  |  |  |  |  |  |  | > 100 |  | 
14 | O=C(O)C(Cc1ccc(O)c([N+](=O)[O-])c1)N1C(=O)c2ccccc2C1=O (stereo unspecified) | > 100 | > 100 | > 100 | > 100 | > 100 | > 100 | > 100 |  | > 100 |  |  |  |  |  |  |  |  | 47 |  | 
15 | O=C(N/N=C/c1ccc(F)cc1)c1[nH]c2ccc(I)cc2c1-c1ccccc1 | > 82.1 | 10 |  | 10.7 | 2.11 | 1.35 | > 80.7 | 12.5 | 7.85 | 2.31 | 0.35 | 0.372 |  | 0.475 | 0.385 | 0.325 | 0.772 | 0.824 | 0.259 | 0.888
16 | O=C1c2cccc3cc([N+](=O)[O-])cc(c23)C(=O)N1CCCN1CCN(CCCN2C(=O)c3cccc4cc([N+](=O)[O-])cc(c34)C2=O)CC1 | > 100 | > 100 | 1.76 | 5.55 |  | 1.34 |  | 54.3 | 4.87 |  |  |  |  |  |  |  |  | 12.8 |  | 
17 | CCCCc1cc(O)ccc1O | > 100 | > 100 | > 100 | > 100 | > 100 | 28.9 | > 100 | > 100 |  | 78.5 | 43.1 |  | 16.7 | 12.2 | 16.4 | 15.5 | 15.5 | 6.77 | 2.56 | 70.8
18 | COc1cc2ccc3c4cc(OC)c(OCc5ccccc5)cc4cnc3c2cc1OC |  | > 100 |  | > 100 | > 100 |  | > 100 | > 100 | > 100 |  |  |  |  |  |  |  |  |  |  | 
19 | COc1cccc2c1C1=CC(=O)CCC1C(C)(C)O2 (stereo unspecified) | > 100 | > 100 | > 100 | > 100 | > 100 | > 100 | > 100 |  | > 100 |  |  |  |  |  |  |  |  | > 100 |  | 
20 | COc1cc(C(C#N)NNC(=O)c2ccccc2O)ccc1O (stereo unspecified) |  | > 100 | 6.3 | > 100 | > 100 | > 100 | > 100 |  | > 100 |  |  |  |  |  |  |  |  | 19.4 |  | 
